{"source": "ChEMBL document CHEMBL4145551", "about": "“Mitochondria-targeting indolizino[3,2-c]quinolines as novel class of photosensitizers for photodynamic anticancer activity” (Eur J Med Chem, 2018)", "key": {"DNA [1]": {"tested_on": "DNA", "experiment": "Binding affinity to Escherichia coli pBR322 DNA assessed as increase in test compound fluorescence after 30 mins under blue LED light irradiation", "type": "nucleic-acid assay"}, "HeLa [2]": {"tested_on": "HeLa", "experiment": "Photocytotoxicity against human HeLa cells assessed as cell shrinkage at 20 uM preincubated for 1 hr followed by blue LED light irradiation for 10 mins and measured after 2.5 hrs by holotomographic method", "type": "functional, cell-based"}, "HeLa [3]": {"tested_on": "HeLa", "experiment": "Photocytotoxicity against human HeLa cells assessed as cellular shrinkage up to 10 uM preincubated for 1 hr followed by blue LED light irradiation for 5 mins and measured after 13 hrs by Hoechst 33258 staining based fluorescence microscopic method", "type": "functional, cell-based"}, "Calf thymus DNA": {"tested_on": "Calf thymus DNA", "experiment": "Binding affinity to calf thymus DNA assessed as red shift in absorption maxima", "type": "nucleic-acid assay", "details": "Bos taurus"}, "HeLa [4]": {"tested_on": "HeLa", "experiment": "Photocytotoxicity against human HeLa cells assessed as increase in cleaved caspase-3 protein expression preincubated for 1 hr followed by blue LED light irradiation for 10 mins and measured after 18 hrs by Western blot analysis", "type": "functional, cell-based"}, "HeLa [5]": {"tested_on": "HeLa", "experiment": "Photocytotoxicity against human HeLa cells assessed as induction of mitochondrial damage by measuring mitochondrial swelling at 10 uM preincubated for 1 hr followed by 488 nanometer laser light irradiation up to 6 mins by mitotracker red staining based confocal laser scanning microscopic method", "type": "functional, cell-based"}, "HeLa [6]": {"tested_on": "HeLa", "experiment": "Photocytotoxicity against human HeLa cells assessed as cell rounding at 5 uM preincubated for 1 hr followed by blue LED light irradiation for 10 to 30 mins and measured after 2.5 hrs by holotomographic method", "type": "functional, cell-based"}, "[7]": {"experiment": "Drug uptake in human HeLa cell cytoplasm at 10 uM after 1 hr by mitotracker red staining based confocal laser scanning microscopic method", "type": "ADME, subcellular"}, "HeLa [8]": {"tested_on": "HeLa", "experiment": "Photocytotoxicity against human HeLa cells assessed as plasma membrane blebbing up to 10 uM preincubated for 1 hr followed by blue LED light irradiation for 5 mins and measured after 13 hrs by Hoechst 33258 staining based fluorescence microscopic method", "type": "functional, cell-based"}, "HeLa [9]": {"tested_on": "HeLa", "experiment": "Photocytotoxicity against human HeLa cells assessed as chromatin condensation up to 10 uM preincubated for 1 hr followed by blue LED light irradiation for 5 mins and measured after 13 hrs by Hoechst 33258 staining based fluorescence microscopic method", "type": "functional, cell-based"}, "DNA [10]": {"tested_on": "DNA", "experiment": "Induction of Escherichia coli pBR322 DNA cleavage at 20 uM irradiated with blue LED light after 30 mins in presence of H2O2 scavenger KI by agarose gel electrophoresis method", "type": "nucleic-acid assay"}, "HeLa [11]": {"tested_on": "HeLa", "experiment": "Photocytotoxicity against human HeLa cells assessed as increase in cleaved PARP protein expression preincubated for 1 hr followed by blue LED light irradiation for 10 mins and measured after 18 hrs by Western blot analysis", "type": "functional, cell-based"}, "[12]": {"experiment": "Induction of singlet oxygen production assessed as photodegradation of DPBF by measuring quantum yield after irradiation with 356 nanometer light by UV-Visible spectroscopic analysis", "type": "functional"}, "MCF7": {"tested_on": "MCF7", "experiment": "Photocytotoxicity against human MCF7 cells assessed as induction of mitochondrial membrane potential depolarization at 10 uM preincubated for 1 hr followed by blue LED light irradiation for 5 mins by TMRE staining based confocal microscopic method", "type": "functional, cell-based"}, "HeLa [13]": {"tested_on": "HeLa", "experiment": "Photocytotoxicity against human HeLa cells assessed as reduction in cell viability at 2 uM preincubated for 1 hr followed blue LED light irradiation for 5 mins and measured after 24 hrs in presence of singlet oxygen scavenger histidine by MTT assay", "type": "functional, cell-based"}, "HeLa [14]": {"tested_on": "HeLa", "experiment": "Photocytotoxicity against human HeLa cells assessed as reduction in cell viability preincubated for 1 hr followed blue LED light irradiation for 5 mins and measured after 24 hrs by MTT assay", "type": "functional, cell-based"}}, "note": "Calls of active or inactive are those of the source. The rule behind the calls is not given here."}
{"smiles": "Cc1cccn2c1cc1c3ccccc3nc(-c3ccco3)c12", "values": [{"measurement": "Activity", "setting": "DNA [1]", "result": "Dose-dependent effect"}, {"measurement": "Activity", "setting": "HeLa [2]", "result": "Active"}, {"measurement": "Activity", "setting": "HeLa [3]", "result": "Active"}, {"measurement": "Activity", "setting": "Calf thymus DNA", "result": 57, "unit": "nm"}, {"measurement": "Activity", "setting": "HeLa [4]", "result": "Dose-dependent effect"}, {"measurement": "Activity", "setting": "HeLa [5]", "result": "Active"}, {"measurement": "Activity", "setting": "HeLa [6]", "result": "Active"}, {"measurement": "Drug uptake", "setting": "[7]", "result": "Active"}, {"measurement": "Activity", "setting": "HeLa [8]", "result": "Active"}, {"measurement": "Activity", "setting": "HeLa [9]", "result": "Active"}, {"measurement": "Activity", "setting": "DNA [10]", "result": "inactive"}, {"measurement": "Activity", "setting": "HeLa [11]", "result": "Dose-dependent effect"}, {"measurement": "Activity", "setting": "[12]", "result": 0.33}, {"measurement": "Activity", "setting": "MCF7", "result": "Active"}, {"measurement": "Activity", "setting": "HeLa [13]", "result": "inactive"}, {"measurement": "Activity", "setting": "HeLa [14]", "result": "Dose-dependent effect"}, {"measurement": "IC50", "setting": "HeLa [14]; light or radiation study", "result": 1760, "unit": "nM"}]}
